{"source": "paper PMC2682652", "about": "(PLoS ONE, 2009)", "tested_on": "intraperitoneal MDA-MB-435 xenograft tumors", "assay": "Tumor reduction study, peritoneal carcinomatosis", "format": "in vivo, SCID-mice", "conditions": "6×1.85 MBq i.p., days 16-26 after inoculation, groups of 8 mice; p = 0.04", "method": "To generate intraperitoneal xenograft tumors, 6–8 week old SCID-mice (Charles River, Sulzfeld, Germany) were injected i.p. with 1×10^7 MDA-MB435 tumor cells. Mice were weighed weekly and were sacrificed when the mean normal body weigth decreased <25% or when mice developped tumor side effects like ascites or reduced general condititon. All experiments were performed according to the German law for the protection of animals.\nSCID-mice (Charles River, Sulzfeld, Germany) were injected i.p. with 1×10^7 MDA-MB-435 cells expressing firefly luciferase in 100 µl PBS. […] All experiments were performed three times. The animals were controlled daily until they were sacrificed."}
{"smiles": "O=C([O-])CN(CCN(CC(=O)[O-])CC(=O)[O-])CCN(CC(=O)[O-])CC(=O)[O-].[213Bi+3]", "note": "[^213Bi-DTPA]", "values": [{"measurement": "mean survival", "result": 48, "unit": "days"}]}
